Literature values as cited in US12133876B2, “TryNOVID boosts immune system against viruses and variants” (priority 2022, dated 2024).

Tests used:
[1] = system: SARS-COV-2; conditions: binding to SARS-COV-2 (Kulkarni et al., 2020)
[2] = system: enveloped viruses; conditions: Coronavirus, HIV, Measles virus, Herpes simplex virus type 1 and 2, Influenza virus and other listed enveloped viruses (Lieberman et al., 2006)
[3] = system: COVID-19; conditions: high dose; patients requiring hospitalization due to proven COVID-19; plus best-available therapy versus best-available therapy

Structure (SMILES) | binding affinities in molecular docking [1] | further results
C=CC(C)=CCC=C(C)C [ocimene] | good binding affinities | 
C=C1C2CCC(C2)C1(C)C (stereo not shown) [camphene] | good binding affinities | 
CCCCCCCCCCCC(=O)OCC(O)CO (stereo not shown) [Monolaurin, glycerol monolaurate] |  | inactivation of enveloped viruses [2]: able to inactivate
Cc1ccc(C(C)C)c(O)c1 [thymol] | good binding affinities | 
CC1CCC(C(C)C)C(O)C1 (stereo not shown) [menthol] | good binding affinities | 
C=C1CC[C@H](O)C/C1=C/C=C1\CCC[C@]2(C)[C@@H]([C@H](C)CCCC(C)(C)O)CC[C@@H]12 [calcifediol, 25-hydroxyvitamin D] |  | need for ICU treatment [3]: significantly reduced
CC(C)=C1CC[C@@H](C)CC1=O [pulegone] | good binding affinities | 
